What all share (type): cell-based
The target in assay [1] is T1, F876L mutant Androgen Receptor (AR-F876L) (Homo sapiens, UniProt P10275, F877L).
T1 construct: expressed in transfected cells; host or cells: LNCaP (LNCaP F876L)
T1 sequence (P10275 1-920 F877L): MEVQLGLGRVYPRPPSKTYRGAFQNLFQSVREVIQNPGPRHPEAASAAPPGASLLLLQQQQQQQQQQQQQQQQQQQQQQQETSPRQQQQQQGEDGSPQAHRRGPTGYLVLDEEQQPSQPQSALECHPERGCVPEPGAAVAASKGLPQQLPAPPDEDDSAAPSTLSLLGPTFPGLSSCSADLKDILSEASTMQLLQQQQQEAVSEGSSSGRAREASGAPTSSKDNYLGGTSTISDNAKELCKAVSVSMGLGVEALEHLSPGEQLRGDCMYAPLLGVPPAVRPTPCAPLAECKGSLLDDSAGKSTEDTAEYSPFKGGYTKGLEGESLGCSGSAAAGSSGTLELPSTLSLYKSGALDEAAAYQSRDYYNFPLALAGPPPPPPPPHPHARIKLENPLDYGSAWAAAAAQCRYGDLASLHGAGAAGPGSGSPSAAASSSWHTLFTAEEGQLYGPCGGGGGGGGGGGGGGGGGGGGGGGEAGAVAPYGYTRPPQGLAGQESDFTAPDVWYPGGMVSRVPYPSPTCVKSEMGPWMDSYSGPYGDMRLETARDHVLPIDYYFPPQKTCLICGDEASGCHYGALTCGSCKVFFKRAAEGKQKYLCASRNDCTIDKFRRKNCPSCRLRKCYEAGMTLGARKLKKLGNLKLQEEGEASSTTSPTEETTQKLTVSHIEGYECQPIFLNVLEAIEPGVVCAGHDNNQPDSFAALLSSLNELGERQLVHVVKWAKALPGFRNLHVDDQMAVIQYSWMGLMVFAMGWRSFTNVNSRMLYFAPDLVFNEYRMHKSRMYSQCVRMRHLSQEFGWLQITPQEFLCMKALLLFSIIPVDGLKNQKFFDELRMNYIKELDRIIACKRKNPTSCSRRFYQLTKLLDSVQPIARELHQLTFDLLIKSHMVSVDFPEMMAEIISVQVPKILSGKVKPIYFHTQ
Nature of the assay: LNCaP-AR-F876L AG reporter assay (ARE firefly luciferase, agonist mode). Particulars: for Emax: read-out: LNCaP-AR-F876L AG MAX % Stim. As for the experimental part: (§1) A stable pooled-population cell line was generated using puromycin (Life Technologies) selection at 1:10,000 v/v. The protocol below was used for both cell lines and for testing of the compounds of Formula (I) of the present invention.
(§2) LNCaP cells were grown to about 80% confluence, media removed and cells rinsed in Hank's balanced salt solution prior to separation from the plate with 0.05% Trypsin EDTA. Cells were lifted and trypsin negated in complete CSS (charcoal stripped serum) culture media. […] Agonist challenge was at 400 pM for WT assay and 600 pM for F876L assay. Plates containing cells and compounds herein were incubated for a further 20-24 hours at 37° C., 5% CO2 before addition of 40 μL/well of Steady-Glo Luciferase Assay System Reagent (Promega# E2520). After 1 h, plates were read for luminescence on a BMG Pherastar.
(§3) EC/IC50 calculations were achieved utilizing calculated RLU data and data fitting macros. Data were fit using least-squares methods to the following formula: […]

The target of assay [2] is T2, wild-type Androgen Receptor (AR-wt) (Homo sapiens, UniProt P10275).
T2 construct: expressed in transfected cells; host or cells: LNCaP (LNCaP AR (cs))
T2 sequence (P10275 1-920): T1 sequence (P10275 1-920 F877L) with L877F
Nature of the assay: LNCaP-AR-wt AG reporter assay (ARE firefly luciferase, agonist mode). Particulars: for Emax: read-out: LNCaP-AR-wt AG MAX % Stim. As for the experimental part: as §1, §2, §3
A general note: In a reporter assay the amount or activity of a reporter protein is the signal.

Assay [3] concerns the target T1, F876L mutant Androgen Receptor (AR-F876L). Nature of the assay: LNCaP-AR-F876L ANT reporter assay (ARE firefly luciferase, antagonist mode). Particulars: for Emax: read-out: LNCaP-AR-F876L ANT MAX % Inh; for IC50: read-out: LNCaP-AR-F876L ANT pIC50 (converted). On the procedure:
as §1, §2, §3

Assay [4] deals with T2, wild-type Androgen Receptor (AR-wt). Description: LNCaP-AR-wt ANT reporter assay (ARE firefly luciferase, antagonist mode). Particulars: for IC50: antagonist mode, 400 pM R-1881 challenge, −Log10(IC50 [Molar]), read-out: LNCaP-AR-wt ANT pIC50 (converted); for Emax: read-out: LNCaP-AR-wt ANT MAX % Inh. As for the experimental part: as §1, §2, §3
Where [5] appears, read: agonist mode, −Log10(EC50 [Molar]), read-out: LNCaP-AR-F876L AG pEC50 (converted).
[6] abbreviates: maximum % stimulation (agonist response) over tested concentration range.
The mark [7] stands for this setting: agonist mode, −Log10(EC50 [Molar]), read-out: LNCaP-AR-wt AG pEC50 (converted).
[8] abbreviates: maximum % inhibition of R1881 control response over tested concentration range.

Numbering of substitutions follows the chain as printed. Read-outs that look alike come from different tables or passages of the source. Bounds are passed on as bounds.

Regarding `Cc1cc(N2C(=O)C(C)(C)N(c3ccc(OC4CCN(C)CC4)cc3)C2=S)cnc1C#N` [Cpd 1, 5-[4,4-dimethyl-3-[4-[(1-methyl-4-piperidyl)oxy]phenyl]-5-oxo-2-thioxo-imidazolidin-1-yl]-3-methyl-pyridine-2-carbonitrile], the EC50 in assay [1] (setting [5]) and in assay [2] (setting [7]) was > 15100 nM each time. Moreover, the Emax in assay [1] (setting [6]) was -0.6%; in assay [2] (setting [6]) it was 0.5%; in assay [3] (setting [8]), 101%; in assay [4] (setting [8]), 100%. The figures for the IC50 in assay [3] and in assay [4] were 513 nM and 871 nM, respectively.
For `Cc1cc(N2C(=O)C3(CCC3)N(c3ccc(C(=O)NC4CCOCC4)c(F)c3)C2=S)cnc1C#N` [Cpd 2, 4-[6-(6-cyano-5-methyl-3-pyridyl)-5-oxo-7-thioxo-6,8-diazaspiro[3.4]octan-8-yl]-2-fluoro-N-tetrahydropyran-4-yl-benzamide], the EC50 in assay [1] and in assay [2] was > 15100 nM in each case. Also, the Emax was -0.4% in assay [1], 0.8% in assay [2], 99.3% in assay [3] and 98.1% in assay [4]. The IC50 was 288 nM in assay [3] and 2240 nM in assay [4].
Take `Cc1cc(N2C(=O)C3(CCC3)N(c3ccc(C(=O)NCC4CCOCC4)c(F)c3)C2=S)cnc1C#N` [Cpd 3, 4-[6-(6-cyano-5-methyl-3-pyridyl)-5-oxo-7-thioxo-6,8-diazaspiro[3.4]octan-8-yl]-2-fluoro-N-(tetrahydropyran-4-ylmethyl)benzamide]: the EC50 in assay [1] (setting [5]) and in assay [2] (setting [7]) was > 15100 nM each time. The Emax in assay [1] (setting [6]) was -0.3%; in assay [2] (setting [6]), 0.3%; in assay [3] (setting [8]) it was 98.9%; in assay [4] (setting [8]), 99.6%. Besides, the IC50 in assay [3] is 324 nM; in assay [4] it was 1350 nM.
In the case of `Cc1cc(N2C(=O)C3(CCC3)N(c3ccc(OC4CCN(C)CC4)cc3)C2=S)cnc1C#N` [Cpd 4, 3-methyl-5-[8-[4-[(1-methyl-4-piperidyl)oxy]phenyl]-5-oxo-7-thioxo-6,8-diazaspiro[3.4]octan-6-yl]pyridine-2-carbonitrile], the EC50 in assay [1] (setting [5]) and in assay [2] (setting [7]) was > 15100 nM throughout. Moreover, the Emax in assay [1] (setting [6]) was -0.4%; in assay [2] (setting [6]), 0.2%; in assay [3] (setting [8]) it was 100%; in assay [4] (setting [8]), 100%. In addition, the IC50 in assay [3] is 269 nM; in assay [4], 1100 nM.
For the compound `CNC(=O)c1ccc(N2C(=S)N(c3cnc(C#N)c(C)c3)C(=O)C23CCC3)cc1C` [Cpd 5, 4-[6-(6-cyano-5-methyl-3-pyridyl)-5-oxo-7-thioxo-6,8-diazaspiro[3.4]octan-8-yl]-N,2-dimethyl-benzamide], the EC50 in assay [1] (setting [5]) and in assay [2] (setting [7]) was > 15100 nM throughout. In addition, the Emax was -0.1% in assay [1] (setting [6]), 0.7% in assay [2] (setting [6]), 98.3% in assay [3] (setting [8]) and 101% in assay [4] (setting [8]). Besides, the IC50 in assay [3] is 417 nM; in assay [4], 977 nM.
In the case of `Cc1cc(N2C(=O)C3(CCC3)N(c3ccc(OC4CCS(=O)(=O)CC4)cc3)C2=S)cnc1C#N` [Cpd 6, 5-[8-[4-(1,1-dioxothian-4-yl)oxyphenyl]-5-oxo-7-thioxo-6,8-diazaspiro[3.4]octan-6-yl]-3-methyl-pyridine-2-carbonitrile], the EC50 in assay [1] (setting [5]) and in assay [2] (setting [7]) was > 15100 nM each time. Further, the Emax in assay [1] (setting [6]) worked out at 0%; in assay [2] (setting [6]) it was 0.4%; in assay [3] (setting [8]), 99.5%; in assay [4] (setting [8]), 100%. For the same compound, the IC50 in assay [3] was 178 nM; in assay [4], 646 nM.
In the case of `N#Cc1ncc(N2C(=O)C3(CCC3)N(c3ccc4ccncc4c3)C2=S)cc1C(F)(F)F` [Cpd 7, 5-[8-(7-isoquinolyl)-5-oxo-7-thioxo-6,8-diazaspiro[3.4]octan-6-yl]-3-(trifluoromethyl)pyridine-2-carbonitrile], the EC50 in assay [1] and in assay [2] was > 15100 nM throughout. Besides, the Emax in assay [1] was 0%; in assay [2], -0.2%; in assay [3], 100%; in assay [4], 101%. For the same compound, the IC50 in assay [3] was 234 nM; in assay [4], 417 nM.
On to `N#Cc1ncc(N2C(=O)C3(CCC3)N(c3ccc(C(=O)NCCc4ccccc4)c(F)c3)C2=S)cc1C(F)(F)F` [Cpd 42, 4-[6-[6-cyano-5-(trifluoromethyl)-3-pyridyl]-5-oxo-7-thioxo-6,8-diazaspiro[3.4]octan-8-yl]-2-fluoro-N-phenethyl-benzamide], for which the EC50 in assay [1] (setting [5]) and in assay [2] (setting [7]) was > 15100 nM throughout. For the same compound, the Emax in assay [1] (setting [6]) amounted to 0%; in assay [2] (setting [6]), 0.3%; in assay [4] (setting [8]), 100%. For the same compound, the IC50 in assay [4] is 245 nM.
With `Cc1cc(N2C(=O)C3(CCC3)N(c3ccc(OC4CCOCC4)cc3)C2=S)cnc1C#N` [Cpd 87, 3-methyl-5-[5-oxo-8-(4-tetrahydropyran-4-yloxyphenyl)-7-thioxo-6,8-diazaspiro[3.4]octan-6-yl]pyridine-2-carbonitrile], in assay [1], the EC50 is > 15100 nM and the Emax turned out to be 0.9%. Moreover, in assay [2], the EC50 was > 15100 nM and the Emax was 1.1%. For the same compound, in assay [3], the Emax was 99.7% and the IC50 was 288 nM.

The record behind these values is US20180008587A1, “THIOHYDANTOIN ANDROGEN RECEPTOR ANTAGONISTS FOR THE TREATMENT OF CANCER” (Jaressen Pharmaceutica NV, priority 2016, published 2018).
